# In patent US10189863B2, “5,6-dihydro-4H-benzo[b]thieno-[2,3-d]azepine derivatives” (PULMOCIDE LIMITED, priority 2014, dated 2019):
# Key:
# HEp2 cells = experiment: Cell viability: resazurin assay; assay type: cell-based, human; settings: 5 days
# Method in brief: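 Viability read-out: resazurin fluorescence (ex 545, em 590 nm) after 6 h, following 5-day compound incubation of HEp2 cells (37 °C, 5% CO2, 5% FBS, 0.5% DMSO final). Loss expressed as percentage of vehicle, negative if viability rose; CC50 derived from concentration-response curve where appropriate.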
# RSV A2 = experiment: Virus titre in air-liquid interface (ALI) cultured bronchial epithelial cells (plaque assay); assay type: cell-based, human respiratory syncytial virus; settings: for Effect on RSV titre (in words): early intervention
# Description: Assessment of Virus Titre in Air-liquid Interface (ALI) Cultured Bronchial Epithelial Cells
# ALI cultured human bronchial epithelial cells were sourced from Epithelix Sarl (Geneva, Switzerland) and maintained by changing the basal media every 3-4 days, whilst the apical surface was washed once weekly with PBS. On Day 0, the apical surface of each well was washed once with sterile PBS (300 μL) and the inserts were transferred to new 24-well plates containing fresh MucilAir culture medium (780 μL; EP04MM). RSV A2 (50 μL; diluted in MucilAir culture medium to give a final MOI of 0.01) was added to cells for one hr (37° C./5% CO2). For the purposes of standardizing MOI calculations, each MucilAir insert was estimated to contain 2×10^5 apical facing cells per well. Virus inoculum was removed with a pipette and inserts were washed twice with sterile PBS (300 μL).
# Sampling was conducted by adding sterile PBS (300 μL) to the apical surface of each well for 5 min. The apical sample was then removed and transferred to tubes containing 50% sucrose dissolved in PBS (100 μL) before being stored at −80° C. This harvesting procedure was repeated daily beginning on day 0 and concluding on day 7.
# ALI cultures were dosed apically with test compound on days 0-7 for “early intervention” protocols, or days 3-7 for “late intervention” protocols. The test compound (50 μL in 0.5% DMSO/PBS) was added to the apical surface and incubated (37° C./5% CO2) for 1 hr before being removed. Vehicle treatments (0.5% DMSO/PBS) were performed on the corresponding apical surfaces to ensure each well received the same number of manipulations. On day 5, the basal media was removed from each well and replenished with fresh MucilAir culture media as a necessary maintenance step for ALI culture cells.
# Virus titre was quantified by plaque assay. HEp2 cells were grown in 24-well plates (Corning) for 48 hr prior to infection in DMEM containing 10% FBS until they attained 100% confluency. Collected samples were thawed at RT and ten-fold serial dilutions were prepared in serum-free DMEM. The growth medium from HEp2 cells was aspirated and replaced with 300 μL of serially diluted virus collections and left to infect at 37° C./5% CO2 for 4 hr. The infectious media was aspirated and replaced with Plaque Assay Overlay (500 μL; 1% methylcellulose in MEM, 2% FBS, 1% Pen Strep, 0.5 μg/mL amphotericin B), and left for 7 days at 37° C./5% CO2. Cells were fixed with ice-cold methanol for 10 min and blocked with 5% powdered milk (Marvel) in 0.05% PBS-tween (‘blocking buffer’) for 1 hr at RT. Anti-RSV F-protein antibody (2F7; Abcam: ab43812) was diluted to a 1:100 concentration in blocking buffer and added to cells for 1 hr at RT with shaking. Cells were washed using PBS and incubated with the secondary antibody (HRP conjugated goat anti-mouse secondary antibody (Dako P044701-2) diluted in 1:400 with blocking buffer) for 1 hr at RT with shaking. The secondary antibody solution was removed and cells were washed with PBS before the metal-enhanced development substrate DAB was prepared in ultra-pure water (according to manufacturer's instructions). Each well received 300 μL of development substrate (sigmaFAST D0426) until plaques were visible. Plaques were counted by eye and confirmed using light microscopy, allowing the calculation of plaque forming units per mL.
# hRSV/A/Long = experiment: RSV infection in cotton rats: virus titre in lung (plaque assay); assay type: in vivo, Sigmodon hispidus cotton rats; settings: for Virus titre in lung, Geometric mean: cotton rats, intranasal, day 4
compound,measurement,setting,value
"Cc1cnc(N2CC3(CCOCC3)C2)c(C(=O)Nc2ccc(C(=O)N3CCc4cc(C(=O)Nc5c(C)cccc5F)sc4-c4ccccc43)cc2)c1 [Example 5, N-(2-Fluoro-6-methylphenyl)-6-(4-(5-methyl-2-(7-oxa-2-azaspiro[3.5]nonan-2-yl)nicotinamido)benzoyl)-5,6-dihydro-4H-benzo[b]thieno[2,3-d]azepine-2-carboxamide]",CC50,HEp2 cells,> 14 µM
same,"Virus titre in apical wash, geometric mean ± SD","RSV A2; early intervention (days 0-7), 0.004 mg/mL, day 0",0.0 ± 0.0 log PFU/mL
same,"Virus titre in apical wash, geometric mean ± SD","RSV A2; early intervention (days 0-7), 0.004 mg/mL, day 1",0.61 ± 0.86 log PFU/mL
same,"Virus titre in apical wash, geometric mean ± SD","RSV A2; early intervention (days 0-7), 0.004 mg/mL, day 2",3.1 ± 0.22 log PFU/mL
same,"Virus titre in apical wash, geometric mean ± SD","RSV A2; early intervention (days 0-7), 0.004 mg/mL, day 3",3.9 ± 0.18 log PFU/mL
same,"Virus titre in apical wash, geometric mean ± SD","RSV A2; early intervention (days 0-7), 0.004 mg/mL, day 4",4.1 ± 0.16 log PFU/mL
same,"Virus titre in apical wash, geometric mean ± SD","RSV A2; early intervention (days 0-7), 0.004 mg/mL, day 5",4.2 ± 0.12 log PFU/mL
same,"Virus titre in apical wash, geometric mean ± SD","RSV A2; early intervention (days 0-7), 0.004 mg/mL, day 6",3.2 ± 0.26 log PFU/mL
same,"Virus titre in apical wash, geometric mean ± SD","RSV A2; early intervention (days 0-7), 0.004 mg/mL, day 7",2.8 ± 0.43 log PFU/mL
same,"Virus titre in apical wash, geometric mean ± SD","RSV A2; early intervention (days 0-7), 0.02 mg/mL, day 0",0.0 ± 0.0 log PFU/mL
same,"Virus titre in apical wash, geometric mean ± SD","RSV A2; early intervention (days 0-7), 0.02 mg/mL, day 1",0.0 ± 0.0 log PFU/mL
same,"Virus titre in apical wash, geometric mean ± SD","RSV A2; early intervention (days 0-7), 0.02 mg/mL, day 2",0.0 ± 0.0 log PFU/mL
same,"Virus titre in apical wash, geometric mean ± SD","RSV A2; early intervention (days 0-7), 0.02 mg/mL, day 3",0.0 ± 0.0 log PFU/mL
same,"Virus titre in apical wash, geometric mean ± SD","RSV A2; early intervention (days 0-7), 0.02 mg/mL, day 4",1.4 ± 1.1 log PFU/mL
same,"Virus titre in apical wash, geometric mean ± SD","RSV A2; early intervention (days 0-7), 0.02 mg/mL, day 5",1.9 ± 1.4 log PFU/mL
same,"Virus titre in apical wash, geometric mean ± SD","RSV A2; early intervention (days 0-7), 0.02 mg/mL, day 6",0.0 ± 0.0 log PFU/mL
same,"Virus titre in apical wash, geometric mean ± SD","RSV A2; early intervention (days 0-7), 0.02 mg/mL, day 7",0.0 ± 0.0 log PFU/mL
same,"Virus titre in apical wash, geometric mean ± SD","RSV A2; early intervention (days 0-7), 0.1 mg/mL, day 0",0.0 ± 0.0 log PFU/mL
same,"Virus titre in apical wash, geometric mean ± SD","RSV A2; early intervention (days 0-7), 0.1 mg/mL, day 1",0.0 ± 0.0 log PFU/mL
same,"Virus titre in apical wash, geometric mean ± SD","RSV A2; early intervention (days 0-7), 0.1 mg/mL, day 2",0.0 ± 0.0 log PFU/mL
same,"Virus titre in apical wash, geometric mean ± SD","RSV A2; early intervention (days 0-7), 0.1 mg/mL, day 3",0.0 ± 0.0 log PFU/mL
same,"Virus titre in apical wash, geometric mean ± SD","RSV A2; early intervention (days 0-7), 0.1 mg/mL, day 4",0.0 ± 0.0 log PFU/mL
same,"Virus titre in apical wash, geometric mean ± SD","RSV A2; early intervention (days 0-7), 0.1 mg/mL, day 5",0.0 ± 0.0 log PFU/mL
same,"Virus titre in apical wash, geometric mean ± SD","RSV A2; early intervention (days 0-7), 0.1 mg/mL, day 6",0.0 ± 0.0 log PFU/mL
same,"Virus titre in apical wash, geometric mean ± SD","RSV A2; early intervention (days 0-7), 0.1 mg/mL, day 7",0.0 ± 0.0 log PFU/mL
same,Effect on RSV titre (in words),RSV A2; 0.1 μg/mL over 7 days,complete inhibition
same,Effect on RSV titre (in words),RSV A2; apical well daily from day 0 to day 7,concentration dependent inhibition
same,Effect on virus titre (in words),RSV A2; early or late stage intervention,completely inhibited virus titre
same,"Virus titre in apical wash, geometric mean ± SD","RSV A2; late intervention (days 3-7), 0.02 mg/mL, day 0",0.0 ± 0.0 log PFU/mL
same,"Virus titre in apical wash, geometric mean ± SD","RSV A2; late intervention (days 3-7), 0.02 mg/mL, day 1",1.6 ± 1.1 log PFU/mL
same,"Virus titre in apical wash, geometric mean ± SD","RSV A2; late intervention (days 3-7), 0.02 mg/mL, day 2",3.9 ± 0.15 log PFU/mL
same,"Virus titre in apical wash, geometric mean ± SD","RSV A2; late intervention (days 3-7), 0.02 mg/mL, day 3",5.2 ± 0.04 log PFU/mL
same,"Virus titre in apical wash, geometric mean ± SD","RSV A2; late intervention (days 3-7), 0.02 mg/mL, day 4",3.8 ± 0.50 log PFU/mL
same,"Virus titre in apical wash, geometric mean ± SD","RSV A2; late intervention (days 3-7), 0.02 mg/mL, day 5",3.6 ± 0.13 log PFU/mL
same,"Virus titre in apical wash, geometric mean ± SD","RSV A2; late intervention (days 3-7), 0.02 mg/mL, day 6",0.0 ± 0.0 log PFU/mL
same,"Virus titre in apical wash, geometric mean ± SD","RSV A2; late intervention (days 3-7), 0.02 mg/mL, day 7",1.3 ± 0.94 log PFU/mL
same,"Virus titre in apical wash, geometric mean ± SD","RSV A2; late intervention (days 3-7), 0.1 mg/mL, day 0",0.0 ± 0.0 log PFU/mL
same,"Virus titre in apical wash, geometric mean ± SD","RSV A2; late intervention (days 3-7), 0.1 mg/mL, day 1",2.3 ± 0.35 log PFU/mL
same,"Virus titre in apical wash, geometric mean ± SD","RSV A2; late intervention (days 3-7), 0.1 mg/mL, day 2",4.1 ± 0.14 log PFU/mL
same,"Virus titre in apical wash, geometric mean ± SD","RSV A2; late intervention (days 3-7), 0.1 mg/mL, day 3",5.0 ± 0.14 log PFU/mL
same,"Virus titre in apical wash, geometric mean ± SD","RSV A2; late intervention (days 3-7), 0.1 mg/mL, day 4",3.8 ± 0.31 log PFU/mL
same,"Virus titre in apical wash, geometric mean ± SD","RSV A2; late intervention (days 3-7), 0.1 mg/mL, day 5",1.7 ± 1.2 log PFU/mL
same,"Virus titre in apical wash, geometric mean ± SD","RSV A2; late intervention (days 3-7), 0.1 mg/mL, day 6",0.0 ± 0.0 log PFU/mL
same,"Virus titre in apical wash, geometric mean ± SD","RSV A2; late intervention (days 3-7), 0.1 mg/mL, day 7",0.0 ± 0.0 log PFU/mL
same,Effect on virus titre (in words),"RSV A2; late intervention, administered from day 3, days 6 and 7 post infection",dramatic reduction of virus titre
same,Effect on virus titre in the lungs (in words),hRSV/A/Long; RSV A2 infected cotton rats,completely inhibited virus titre
same,"Virus titre in lung, Geometric mean",hRSV/A/Long; Drug Conc 1.0 mg/mL,"4.5 log, PFU/lung"
same,"Virus titre in lung, Geometric mean","hRSV/A/Long; Drug Conc 3.3 mg/mL, LOQ 2.3","<2.3^2 log, PFU/lung"
same,Effect on virus titre in lung homogenates (in words),hRSV/A/Long; hRSV/A/Long infected cotton rats on day4,potent dose-dependent inhibition of virus titre
